In patent publication EP0224257A1, “Stabilized benzimidazole derivatives” (SYNTEX (U.S.A.) INC., priority 1985, dated 1987):

Assay: Blood plasma levels after oral administration to dogs
Assay type: in vivo
Conditions: 10 mg/kg, compared with oxfendazole in commercially available form
Procedure: Dogs were administered orally either amorphous or crystalline oxfendazole at a dose of 10 mg/kg.
Blood samples were drawn and analyzed before administration and on days 1, 2, 3, 7, 10 and 13 following administration. The area under the curve was calculated for plasma concentration vs time profile.

## COC(=O)Nc1nc2ccc([S+]([O-])c3ccccc3)cc2[nH]1 (stereo not shown) [amorphous oxfendazole, methyl 5-(phenylsulfinyl)-1H-benzimidazol-2-yl carbamate]
  plasma level of oxfendazole: higher plasma level
